“Also recorded” adds a separate entry of the source. Like-named read-outs stand apart in the source and are kept apart here. Square brackets hold non-standard residues; d marks the D form. Peptide text beside a SMILES is read from it. * marks the point of attachment. Sta = CC(C)C[C@H](N)[C@@H](O)CC(=O)O; Isovaleryl = CC(C)CC(=O)*; Cbz = O=C(OCc1ccccc1)*

From patent publication US8425917B2 (priority 2001, dated 2013) come the findings set out here.

Common to all, as to type: cell-based, mouse (C57BL/6)
The subject of one assay is JAWSII dendritic cells.
The subject of assay [1] is MHC-I/SIINFEKL complex on JAWSII cells.
The test system of assay [2] is EtxB-mediated epitope delivery in JAWSII cells.
Assay [3] shares this test system. The source holds these as a separate data set.
The next assay concerns JAWSII cells.

With SIINFEKL [8mer], in the assay on JAWSII dendritic cells, the “extent of class I epitope presentation (IL-2 release)” value (from here on “extent … (IL-2 release)”) is listed as “significantly stimulated class I presentation” and the “kinetics of class I peptide presentation (in words)” value was “peptide presentation at the earliest time point tested”. The “MHC-I/SIINFEKL complexes (shift in fluorescence)” value in assay [1] is “clear and similar shift in fluorescence”.

As for Brefeldin A [BFA], in assay [2], the “effect on direct loading and presentation of free 8mer peptide” value (“effect … of free 8mer peptide” below) was “did not inhibit”; the “effect on epitope delivery by EtxB-9mer, -16mer, -19mer, -26mer and -26mer* conjugates” value (“effect on epitope delivery by EtxB-9mer” for short) is “complete inhibition”; the “effect on epitope presentation by EtxB-31mer” value (from here on “effect … by EtxB-31mer”) was “prevented”. Moreover, in assay [3], the “effect on epitope delivery by EtxB-9mer” value is recorded as “complete inhibition”; the “effect … by EtxB-31mer” value is “prevented”. In addition, the “effect on MHC-I/SIINFEKL complexes in cells treated with EtxB-19mer or EtxB-31mer” value in the assay on JAWSII cells is on record as “no detectable MHC-I/SIINFEKL complexes were observed”.

On to Bafilomycin A1 [BafA1], for which, in assay [2], the “effect on EtxB-mediated epitope presentation (conjugate not specified)” value (“effect … (conjugate not specified)” below) is listed as “inhibited”; the “effect … of free 8mer peptide” value was “did not inhibit”; the “effect on epitope delivery by EtxB-9mer” value was “complete inhibition”; the “effect … by EtxB-31mer” value was “prevented”. In assay [3], the “effect on epitope delivery by EtxB-9mer” value is “complete inhibition”; the “effect … by EtxB-31mer” value is recorded as “prevented”. Moreover, in the assay with JAWSII cells, the “effect on MHC-I/SIINFEKL complexes in cells treated with EtxB-19mer or EtxB-31mer” value is listed as “no detectable MHC-I/SIINFEKL complexes were observed”.

On to `CC(=O)N[C@@H](CSC(=O)[C@]1([C@@H](O)C(C)C)NC(=O)[C@H](C)[C@@H]1O)C(=O)O` [lactacystin], for which, in assay [2], the “effect … of free 8mer peptide” value is on record as “failed to prevent”; the “effect on epitope presentation by EtxB-19mer” value (“effect … by EtxB-19mer” below) is recorded as “failed to prevent”; the “effect … by EtxB-31mer” value is “completely blocked”.

Consider `CC[C@H](C)[C@H](NC(=O)[C@H]([C@@H](C)CC)N(C)C(C)=O)C(=O)N[C@H](C(=O)N[C@@H](CC(C)C)C(=O)[C@@]1(C)CO1)[C@@H](C)O` [epoxomicin], for which, in assay [2], the “effect … of free 8mer peptide” value is recorded as “no inhibition of epitope presentation was observed”; the “effect … by EtxB-19mer” value is reported as “no inhibition of epitope presentation was observed”; the “effect … by EtxB-31mer” value is on record as “completely blocked”. In assay [3], the “effect … by EtxB-19mer” value is recorded as “no inhibition of epitope presentation was observed” and the “effect … by EtxB-31mer” value is “completely blocked”. Further, in the assay with JAWSII cells, the “effect on MHC-I/SIINFEKL staining in cells treated with EtxB-19mer” value is “normal co-localisation of WGA and MHC-I/SIINFEKL complexes was observed”; the “effect on MHC-I/SIINFEKL staining in cells treated with EtxB-31mer” value is reported as “no staining with MHC-I/SIINFEKL-specific antibodies was obtained”.

As for CAVGAGATAEESIINFEKL [19mer], the “extent … (IL-2 release)” value with JAWSII dendritic cells is listed as “virtually no presentation occurred”.

As for `CC(C)C[C@H](NC(=O)[C@@H](O)[C@H](N)Cc1ccccc1)C(=O)O` [bestatin], the “effect … (conjugate not specified)” value in assay [2] is “no significant effects”.

For the compound `c1cnc2c(c1)ccc1cccnc12` [1,10-phenanthroline], in assay [2], the “effect … (conjugate not specified)” value is reported as “found to inhibit”.

In the case of `CC[C@@]1([C@@H]2O[C@@H]([C@H]3O[C@@](O)(CO)[C@H](C)C[C@@H]3C)C[C@@H]2C)CC[C@H]([C@]2(C)CC[C@]3(C[C@H](O)[C@@H](C)[C@@H]([C@@H](C)[C@@H](OC)[C@H](C)C(=O)O)O3)O2)O1` [monensin], in assay [2], the “effect … (conjugate not specified)” value was “prevented; also recorded: inhibited”; the “effect … of free 8mer peptide” value was “unaffected”.

Regarding CSIINFEKL [9mer], the “extent … (IL-2 release)” value in the assay with JAWSII dendritic cells is “significantly stimulated class I presentation”.

`CC(C)CC(=O)N[C@H](C(=O)N[C@H](C(=O)N[C@@H](CC(C)C)[C@@H](O)CC(=O)N[C@@H](C)C(=O)N[C@@H](CC(C)C)[C@@H](O)CC(=O)O)C(C)C)C(C)C` [pepstatin] (Isovaleryl-VV[Sta]A[Sta]-OH): in assay [2], the “effect on extent of EtxB-mediated presentation of the 26mer peptide” value was “no effect”.

As to `CC(C)C[C@@H](C=O)NC(=O)[C@H](CC(C)C)NC(=O)[C@H](CC(C)C)NC(=O)OCc1ccccc1` [MG132] (Cbz-Leu-Leu-Leu-aldehyde), in assay [2], the “effect … of free 8mer peptide” value is recorded as “failed to prevent”; the “effect … by EtxB-19mer” value was “failed to prevent”; the “effect … by EtxB-31mer” value was “completely blocked”.

Turning to `CC(=O)N[C@@H](CC(C)C)C(=O)N[C@@H](CC(C)C)C(=O)N[C@H](C=O)CCCNC(=N)N` [leupeptin], the “effect … (conjugate not specified)” value in assay [2] is “no significant effects”.
